In patent publication US4228288A, “Certain substituted 3,4,5,6-tetrahydropyridinium salt intermediates” (Eli Lilly and Company, priority 1979, dated 1980):
Read-outs that look alike come from different tables or passages of the source.

Legend:
[1] = standard rat-tail jerk assay (delay of response to heat stimulus); assay type: in vivo; settings: subcutaneous, heat sensation
Description: (§1) The analgesic activity of a number of compounds provided by this invention has been determined in the standard rat-tail jerk assay and the mouse writhing assay. The results in the mouse writhing assay are presented as the effective dose in mg./kg. of the tested compound required to inhibit induced writhing in the test animals by fifty percent (ED50). Results are presented in Column II for both subcutaneous (S.C.) and oral (p.o.) administration of the test compound recited in Column I.
Column III presents the effects of the claimed compounds on rats subjected to a heat sensation. The compounds recited in column I were administered subcutaneously to the test animals. The test results are reported as the minimum effective dose (MED) of compound in mg./kg. needed to delay response to the pain stimulus by one second compared to control animals.

[2] = standard mouse writhing assay (inhibition of induced writhing); assay type: in vivo
Description: as §1

[3] = oral, read-out: Mouse Writhing ED50 p.o. (dose required to inhibit induced writhing by fifty percent)
[4] = sc, subcutaneous, read-out: Mouse Writhing ED50 s.c. (dose required to inhibit induced writhing by fifty percent)

SMILES	Rat Tail Jerk MED 1 sec. (minimum effective dose to delay response to the pain stimulus by one second compared to control animals) [1] [mg/kg]	ED50 [2, 3] [mg/kg]	ED50 [2, 4] [mg/kg]
CC1CC(C)(c2cccc(O)c2)C(C)CN1C (stereo not drawn) [1,2,4,5-Tetramethyl-4-(3-hydroxyphenyl)piperidine]	1	9.2	1.25
COc1cccc(C2(C)CC(C)N(C)CC2C)c1 (stereo not drawn) [1,2,4,5-Tetramethyl-4-(3-methoxyphenyl)piperidine]	10	16	19
CCCC1(c2cccc(OC)c2)CC(C)N(C)CC1C (stereo not drawn) [1,2,5-Trimethyl-4-n-propyl-4-(3-methoxyphenyl)-piperidine]	2	11.5	4
CCCC1(c2cccc(O)c2)CC(C)N(C)CC1C (stereo not drawn) [1,2,5-trimethyl-4-n-propyl-4-(3-hydroxyphenyl)piperidine]	20	16	29
CCOC(=O)C1(c2ccccc2)CCN(C)CC1 [Meperidine, meperidine, reference compound]	3.0	21	2.8
